This note sets out measurements from patent US11058653B2, “Compositions comprising desaminotyrosine and uses thereof to enhance type I interferon stimulation” (Washington University, priority 2016, dated 2021).

“Also recorded” adds a separate entry of the source.

Data set [1] has as its system influenza A/WSN/33 (rWSN) H1N1 virus. Conditions: mouse, in vivo.
For data set [2], the system named is epithelial proliferation. Kind of data set: Crypt height and epithelial proliferation in mice. The format is in vivo. To be noted: VNAM 2 weeks, then 200 mM desaminotyrosine in drinking water. The method, then:
FIG. 13 depicts an experimental scheme of mice treated with VNAM for 2 weeks and then give +/−200 mM desaminotyrosine in the drinking water for 1 week. After 1 week, the mice were continued on +/−200 mM desaminotyrosine and then treated with +/−1 mg/kg polyIC intraperitoneally once per day for 4 days and then sacrificed 1 day later.
(FIG. 14A, FIG. 14B, FIG. 14C, and FIG. 14D) Representative images of the crypt height for control (FIG. 14A), polyIC (FIG. 14B), deasminotyrosine, (FIG. 14C), and desaminotyrosine+polyIC (FIG. 14D) treated mice. FIG. 14E depicts a graph quantifying the crypt height after the various treatments relative to the control treated mice.
To examine the effects of desaminotyrosine on epithelial proliferation, mice were treated with and without antibiotics for 2 weeks and then with or without desaminotyrosine for […] and with or without polyIC (FIG. 13).

In data set [3] the test system is H1N1 influenza strain California/09. Kind of data set: Influenza infection of mice, strain California/09. The format is in vivo. Conditions: mice infected with California/09. The source says: (§1) FIG. 19A, FIG. 19B, FIG. 19C, FIG. 19D, FIG. 19E, FIG. 19F, FIG. 19G, FIG. 19H, FIG. 19I, FIG. 19J, FIG. 19L, FIG. 19K, FIG. 19M, and FIG. 19N (FIG. 19A and FIG. 19B) Representative images of influenza H1N1 staining by polyclonal antibody on lung cross sections from wild-type (WT) (FIG. 19A) and Irgm1^−/− (FIG. 19B) mice 6 days postinfection (representative images from 5-6 mice per group from two experiments). Bar=200 μm. (FIG. 19C and FIG. 19D) Stool (FIG. 19C) and serum (FIG. 19D) desaminotyrosine levels measured by mass spectroscopy in wild-type mice mock or treated with two weeks of antibiotics and then treated with 200 mM desaminotyrosine in drinking water for one week (n=5-13 per group from two experiments). (FIG. 19E, FIG. 19F, FIG. 19G, and FIG. 19H) Kaplan-Meier survival analysis of nonantibiotic and antibiotic-treated wild-type mice given control or desaminotyrosine in drinking water and then infected with H1N1 influenza strains PR8 (FIG. 19E and FIG. 19F) or Cali/09 (FIG. 19G and FIG. 19H) (n=10 mice per group). *p<0.05 by Mantel-Cox test. (FIG. 19I) Kaplan-Meier survival analysis of wild-type mice treated with indicated antibiotic(s) and then infected with influenza (n=20 mice per group from two experiments). *p<0.05, **p<0.01, and ****p<0.0001 compared to mock treated infected mice by Mantel-Cox test with Bonferroni-corrected threshold. […]

Data set [4] relates to type I IFN response elements (ISREs). Kind of data set: ISRE luciferase reporter metabolic screen (2fTGH-ISRE-CBG99 cell line). The format is cell-based. The text has this: Therefore, a library of microbiome associated metabolites was screened for the ability to enhance type I IFN signaling.^21 A reported cell line that harbors multiple type I IFN response elements (ISREs) driving firefly luciferase was utilized.^22 Each metabolite was screened for the ability to enhance reporter activity in the background of type I IFN or polyIC (an inducer of type I IFN production) treatment (schematic FIG. 4A). Using this methodology, 11 metabolites were identified that increased reporter activity following polyIC co-stimulation (FIG. 4B) and 5 metabolites that increased ISRE reporter activity with type I IFN co-stimulation (FIG. 10).
Metabolites were screened using the 2fTGH-ISRE-CBG99 luciferase cell line.^22 The day before screening the reporter cells were plated at 3×10^4 cell/well in 96 well plates. […] Luciferase was measured at 14 hours post-treatment for IFN-β, and 24 hours post-treatment for poly(IC) using the […] […] Plates were read on a luminometer (1 second read time) using the CYTATION 5 (BioTek). For secondary validation, cells were treated with 1000 μM, 100 μM, 10 μM, and 1 μM of metabolite and 5 or 50 U/ml of IFN-β (PBL Assay Science) or 2.5 or […] of poly(IC) (Amersham Biosciences) and measured as above.
Background: Reporter assays use an easily measured gene product as a stand-in for the process of interest.

The test system of data set [5] is type I IFN signaling in BMDMs. The format is cell-based, mouse.
Data set [6] has as its system dextran sodium sulfate (DSS) induced colitis. The format is in vivo. To be noted: antibiotic treated mice, 2.5% DSS.
In data set [7] the test system is bone marrow derived macrophages infected with Influenza H1N1. The format is cell-based.
For data set [8], the system named is type I IFN activity. The format is in vivo, mice. Conditions: after 2-week antibiotic course; desaminotyrosine orally plus polyIC injections vs polyIC alone.
The nature of data set [9]: Barrier function: 4 kD dextran (FD4) in serum after gavage. The format is in vivo, mice. Conditions: VNAM 2 weeks then 200 mM desaminotyrosine 1 week in drinking water. As for the experimental part:
FIG. 17A depicts a graph quantifying the amount of damaged area following treatment with DSS +/−desaminotyrosine. FIG. 17B depicts a graph dextrain-FD4 measured in the serum of mice treated with VNAM for 2 weeks and then +/−200 mM of desaminotyrosine for 1 week in the drinking water. 4 kD Dextran was administered by gavage and serum collected 4 hours post-gavage.

Data set [10] concerns H1N1 influenza strain PR8. Kind of data set: Influenza infection of mice, strain PR8. Conditions: mice infected with PR8. The format is in vivo.
Text: as §1

As to `CN[C@H](CC(C)C)C(=O)N[C@H]1C(=O)N[C@@H](CC(N)=O)C(=O)N[C@H]2C(=O)N[C@H]3C(=O)N[C@H](C(=O)N[C@H](C(=O)O)c4cc(O)cc(O)c4-c4cc3ccc4O)[C@H](O)c3ccc(c(Cl)c3)Oc3cc2cc(c3O[C@@H]2O[C@H](CO)[C@@H](O)[C@H](O)[C@H]2O[C@H]2C[C@](C)(N)[C@H](O)[C@H](C)O2)Oc2ccc(cc2Cl)[C@H]1O` [vancomycin, reference compound], the influenza associated-mortality result in [1] is recorded as “enhanced influenza associated-mortality”.

For `Cc1ncc([N+](=O)[O-])n1CCO` [metronidazole, reference compound], the influenza associated-mortality entry in data set [1] is on record as “enhanced influenza associated-mortality”.

As to `O=C(O)CCc1ccc(O)cc1` [desaminotyrosine, 3-(4-hydroxyphenyl)propanoic acid], in [2], the crypt height result was “increased crypt height”. Further, in [2] (alone), the epithelial proliferation result is listed as “increased; also recorded: stimulated epithelia proliferation in the small intestine alone”. In addition, in data set [3], the “protection (survival)” value was “protected”. In [4] (with polyIC co-stimulation), the “ISRE reporter activity (fold increase in luminescence), type I IFN signaling” value was “enhanced type I IFN signaling in a dose-dependent manner”. Besides, in data set [4] (with type I IFN (IFN-β) co-stimulation), the “ISRE reporter activity (fold increase in luminescence), type I IFN signaling” value is “enhanced type I IFN signaling in a dose-dependent manner”. In addition, in [5] (BMDMs from Mavs−/− mice), the “polyIC and type I IFN expression of IP-10” value was “still enhanced”. Moreover, the IP-10 expression entry in data set [5] (BMDMs from Stat1−/− mice, polyIC or type I IFN with desaminotyrosine) is given as “not enhanced”. Moreover, the “ISG transcript abundance (IP-10)” value in [5] (wild-type BMDMs, combined with either polyIC or type I IFN) was “increased”. Moreover, the “response to DSS injury (epithelial proliferation, crypt preservation, damage)” value in [6] is “promoted epithelial profliferation and crypt preservation; also recorded: rescues DSS damage”. Moreover, in data set [6] (with desaminotyrosine (control mice ~90%)), the “damaged area of the distal colon after DSS treatment” value is roughly 8%. For the same molecule, the “influenza RNA in bone marrow derived macrophages” value in data set [7] (24 hours pretreatment (100 μM), then infection MOI-2 48 hours, IFN/Ifnar-dependent) is listed as “decreased influenza RNA; also recorded: depleted”. In addition, the “ISG transcripts (Oas1, IP-10) after in vitro influenza infection” value in data set [7] (pretreated BMDMs, Ifnar-dependent) is given as “increased ISG transcripts”. For the same molecule, the “type I IFN activity in the serum” value in data set [8] is “increased type I IFN activity in the serum”. Moreover, the “barrier function (dextran-FD4 in serum 4 hours post-gavage)” value in data set [9] was “no effect on barrier function; also recorded: Not significant”. In data set [1], the “airway epithelial damage and apoptosis (H+E, cleaved caspase 3)” value was “greater airway epithelial damage and apoptosis were observed in control lungs”; the “desaminotyrosine mediated protection (survival)” value was “abolished”; the “phenotypes associated with antibiotic treatment (morbidity and mortality)” value is “recused the phenotypes associated with antibiotic treatment”; the “viral RNA in the lungs (matrix, qRT-PCR)” value was “less viral RNA was found in the lungs”. The “protection (survival)” value in [10] is given as “protected”.
